Data: US6187772A, “Pyrroloazepine compounds” (Suntory Limited, priority 1997, dated 2001)

What was measured:
serotonin (5-HT) = serotonin (5-HT) (Cavia porcellus, UniProt A0A286Y537); assay: Anti-serotonin (5-HT) action (contraction of guinea pig superior mesenteric artery induced by serotonin); type: cell-based, Hartley male guinea pig; conditions: contraction induced by 10^-5 M 5-HT = 100%, helical superior mesenteric artery preparation, Tyrode solution, 37° C; for remaining activity at 1 µM: test drug 10^-6 M, read-out: Anti 5-HT action (% of Control), 10^-6 M; for remaining activity at 0.1 µM: test drug 10^-7 M, read-out: Anti 5-HT action (% of Control), 10^-7 M
Sequence of serotonin (5-HT) (A0A286Y537 1-470): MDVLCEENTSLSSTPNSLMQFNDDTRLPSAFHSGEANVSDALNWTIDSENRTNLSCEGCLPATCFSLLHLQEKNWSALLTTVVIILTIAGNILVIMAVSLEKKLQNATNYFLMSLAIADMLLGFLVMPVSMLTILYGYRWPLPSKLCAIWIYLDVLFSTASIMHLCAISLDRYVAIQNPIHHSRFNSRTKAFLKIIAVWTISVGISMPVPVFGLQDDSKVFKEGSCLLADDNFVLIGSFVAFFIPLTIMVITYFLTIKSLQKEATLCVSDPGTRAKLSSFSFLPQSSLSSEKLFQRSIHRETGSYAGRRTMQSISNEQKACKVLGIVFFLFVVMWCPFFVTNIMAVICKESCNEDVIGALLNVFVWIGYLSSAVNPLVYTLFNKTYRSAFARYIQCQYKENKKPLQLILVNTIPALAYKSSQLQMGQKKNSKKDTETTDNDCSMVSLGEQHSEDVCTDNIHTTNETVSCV
Method: (§1) With respect to the compounds of the present invention, their anti-α1 action and anti-serotonin (5-HT) action were investigated by the methods which will be described below.
(2) Anti-serotonin (5-HT) action
A preparation cut in a helical form was suspended under restomg tension of 0.3 g in a Magnus cylinder filled with the Tyrode solution which had been aerated with a gas mixture of 95% O2 and 5% CO2 and maintained at 37° C. Using an isometric transducer ("UL-10", manufactured by SHINKOH K.K.) and a pressure preamplifier ("DSA-605A", manufactured by SHINKOH K.K.), variations in tension were measured. The isometric tensions were recorded on a pen-writing recorder ("VP-6537A", manufactured by NATIONAL K.K.). Taking the contraction induced by 10^-5 M serotonin (5-HT) as 100%, the percent contractions by 10^-5 M 5-HT in the presence of each test drug at 10^-8 M, 10^-7 M and 10^-6 M were determined as anti-5-HT action.

α1 = assay: Anti-α1 action (contraction of guinea pig thoracic aorta induced by norepinephrine); type: cell-based, Hartley male guinea pig; conditions: tonic contraction induced by 10^-5 M norepinephrine = 100%, helical thoracic aorta preparation, Tyrode solution, 37° C; for Anti α1 action (% of Control), 10^-7 M: test drug 10^-7 M, 0.1 µM; for Anti α1 action (% of Control), 10^-8 M: test drug 10^-8 M, 0.01 µM
Method: as §1
The thoracic aorta of each Hartley male guinea pig (body weight: 300-500 g) was excised. A preparation cut in a helical form was suspended under 1 g load in a Magnus cylinder filled with the Tyrode solution which had been aerated with a gas mixture of 95% O2 and 5% CO2 and maintained at 37° C. Using an isometric transducer ("TB-612J", manufactured by Nihon Kohden Corporation) and a pressure preamplifier ("AP-620G", manufactured by Nihon Kohden Corporation), variations in tension were measured. The isometric tensions were recorded on a thermal pen-writing recorder ("WT-647G", manufactured by Nihon Kohden Corporation). Taking the tonic contraction induced by 10^-5 M norepinephrine (NE) as 100%, the percent contractions upon addition of each test drug at 10^-8 M and 10^-7 M were determined as anti-α1 action.

Compound | remaining activity at 1 µM (serotonin (5-HT)) [%] | remaining activity at 0.1 µM (serotonin (5-HT)) [%] | Anti α1 action (% of Control), 10^-7 M (α1) | Anti α1 action (% of Control), 10^-8 M (α1) | remaining activity at 0.01 µM (serotonin (5-HT); test drug 10^-8 M, read-out: Anti 5-HT action (% of Control), 10^-8 M) [%]
CN1CCC(=NO)c2cn(CCCCN3CCC(C(=O)c4ccc(F)cc4)CC3)cc2C1=O [Compound No. 21, 2-[4-[4-(4-fluorobenzoyl)piperidino]-butyl]-8-hydroxyimino-5-methyl-2,4,5,6,7,8-hexahydropyrrolo[3,4-c]azepin-4-one] | 24.9 | 85.5 | 36.9 % of Control | 69.7 % of Control | –
CN1CCC(=O)c2cn(CCCCN3CCC(C(=O)c4ccc(F)cc4)CC3)cc2C1=O [Compound No. 18, 2-[4-[4-(4-fluorobenzoyl)piperidino]-butyl]-5-methyl-2,4,5,6,7,8-hexahydropyrrolo[3,4-c]azepine-4,8-dione] | 25.3 | 81.7 | 37.3 % of Control | 76.0 % of Control | –
CN1CCC(=O)c2c(ccn2CCCCN2CCC(c3noc4cc(F)ccc34)CC2)C1=O [Compound No. 17, 1-[4-[4-(6-fluoro-1,2-benzisoxazol-3-yl)piperidino]butyl]-5-methyl-1,4,5,6,7,8-hexahydropyrrolo[3,2-c]azepine-4,8-dione] | 8.9 | 55.2 | 14.0 % of Control | 27.8 % of Control | 80.7
CN1CCC(=O)c2c(ccn2CCCCN2CCC(C(=O)c3ccc(F)cc3)CC2)C1=O [Compound No. 15, 1-[4-[4-(4-fluorobenzoyl)piperidino]-butyl]-5-methyl-1,4,5,6,7,8-hexahydropyrrolo[3,2-c]azepine-4,8-dione] | 26.6 | 75.3 | 35.4 % of Control | 59.9 % of Control | –
